Measurements as given in ChEMBL document CHEMBL3576787, “Alkaloidal metabolites from a marine-derived Aspergillus sp. fungus” (J Nat Prod, 2015).
Values after ≈ are worked out from the molar mass of the structure shown. Active and inactive are the calls of the source. The rule behind the calls is not given here.

How the values were obtained:
[1] = Inhibition of porcine cerebral cortex Na+/K+ ATPase using 3-O-methylfluorescein phosphate and […] incubated for 30 mins by spectrophotometry; assay type: tissue-based, Sus scrofa
[2] = test system: A549; assay: Cytotoxicity against human A549 cells; assay type: functional, cell-based
[3] = test system: K562; assay: Cytotoxicity against human K562 cells; assay type: functional, cell-based
[4] = molecular target: Sortase A (Staphylococcus aureus) (UniProt Q2FV99); assay: Inhibition of sortase A (Staphylococcus aureus)
[5] = test system: Proteus hauseri; assay: Antimicrobial activity against Proteus hauseri incubated for 24 hrs; assay type: functional
[6] = test system: Staphylococcus aureus; assay: Antimicrobial activity against Staphylococcus aureus incubated for 24 hrs; assay type: functional
[7] = molecular target: Isocitrate lyase (Candida albicans) (UniProt Q9P8Q7); assay: Inhibition of Candida albicans isocitrate lyase assessed as reduction in glyoxylate phenylhydrazone formation using phenylhydrazine and isocitrate incubated for 30 mins by spectrophotometry
Isocitrate lyase (Candida albicans), sequence (Q9P8Q7 whole entry): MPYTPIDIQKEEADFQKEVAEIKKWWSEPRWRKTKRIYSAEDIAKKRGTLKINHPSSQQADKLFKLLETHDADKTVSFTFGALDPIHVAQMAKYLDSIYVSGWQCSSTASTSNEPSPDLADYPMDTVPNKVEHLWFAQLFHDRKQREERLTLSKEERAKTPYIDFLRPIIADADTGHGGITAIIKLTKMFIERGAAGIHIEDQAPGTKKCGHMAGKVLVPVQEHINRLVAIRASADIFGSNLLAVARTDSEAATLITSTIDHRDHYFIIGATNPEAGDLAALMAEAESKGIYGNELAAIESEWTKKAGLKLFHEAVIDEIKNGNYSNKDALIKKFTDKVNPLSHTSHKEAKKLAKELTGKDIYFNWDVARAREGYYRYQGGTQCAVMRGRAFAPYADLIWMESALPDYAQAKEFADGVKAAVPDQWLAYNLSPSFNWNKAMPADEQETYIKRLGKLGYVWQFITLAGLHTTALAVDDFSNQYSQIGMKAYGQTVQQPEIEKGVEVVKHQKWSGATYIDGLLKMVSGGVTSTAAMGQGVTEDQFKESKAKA

[8] = test system: Escherichia coli; assay: Antimicrobial activity against Escherichia coli incubated for 24 hrs; assay type: functional
[9] = test system: Micrococcus luteus; assay: Antimicrobial activity against Micrococcus luteus incubated for 24 hrs; assay type: functional
[10] = test system: Salmonella typhimurium; assay: Antimicrobial activity against Salmonella typhimurium incubated for 24 hrs; assay type: functional, Salmonella enterica subsp. enterica serovar Typhimurium; conditions: Salmonella enterica

SMILES	IC50 [1] [µM]	inhibition [4]	MIC [5] [µg/mL]	MIC [6] [µg/mL]	inhibition [7]	MIC [8] [µg/mL]	MIC [9] [µg/mL]	MIC [10] [µg/mL]	IC50 [2] [µM]	IC50 [3] [µM]
C[C@@H]1O[C@@H](O[C@H]2C[C@@H](O)[C@]3(CO)[C@H]4[C@H](O)C[C@]5(C)[C@@H](C6=CC(=O)OC6)CC[C@]5(O)[C@@H]4CC[C@]3(O)C2)[C@H](O)[C@H](O)[C@H]1O [OUABAIN]	6.43									
CC(C)[C@@H]1N[C@@H]2N(C1=O)c1ccccc1[C@]2(O)C[C@@H]1C(=O)N[C@@H](C)c2nc3ccccc3c(=O)n21	34.3	inactive	> 100	> 100	inactive	> 100	> 100	> 100	15.8	13.8
CC(C)[C@H]1C(=O)N2c3ccccc3[C@]3(O)C[C@@H](n4cnc5ccccc5c4=O)C(=O)N1[C@H]23	37.9	inactive	> 100	> 100	inactive	> 100	> 100	> 100	18.6	14.4
COc1cccc2c1C(=O)c1c(O)c3c(c(O)c1C2=O)C[C@@](O)(C(=O)CO)C[C@@H]3O[C@H]1C[C@H](N)[C@H](O)[C@H](C)O1 [DOXORUBICIN]									1.83	1.46
CC1(C)S[C@@H]2[C@H](NC(=O)[C@H](N)c3ccccc3)C(=O)N2[C@H]1C(=O)O [AMPICILLIN]			0.39 (≈ 1.12 µM)	0.78 (≈ 2.23 µM)		3.13 (≈ 8.96 µM)	0.2 (≈ 0.572 µM)	0.78 (≈ 2.23 µM)		

More lines, main results first:

IC50 [1] [µM]	inhibition [4]	MIC [5] [µg/mL]	MIC [6] [µg/mL]	inhibition [7]	MIC [8] [µg/mL]	MIC [9] [µg/mL]	MIC [10] [µg/mL]	SMILES	IC50 [2] [µM]	IC50 [3] [µM]
56.8	inactive	100 (≈ 232 µM)	100 (≈ 232 µM)	inactive	> 100	> 100	100 (≈ 232 µM)	CC(C)[C@H]1C(=O)N2c3ccccc3[C@]3(O)C[C@H](n4cnc5ccccc5c4=O)C(=O)N1[C@H]23	29.2	17.8
17.4	inactive	100 (≈ 279 µM)	> 100	inactive	> 100	> 100	> 100	C[C@@H]1NC(=O)[C@@H](Cc2c[nH]c3ccccc23)n2c1nc1ccccc1c2=O [FUMIQUINAZOLINE F]	> 100	> 100
19.5	inactive	> 100	> 100	inactive	> 100	> 100	> 100	CC[C@H]1C(=O)N2c3ccccc3[C@]3(O)C[C@@H](n4cnc5ccccc5c4=O)C(=O)N1[C@H]23	19.3	25.9
20.2	inactive	> 100	> 100	inactive	> 100	100 (≈ 212 µM)	100 (≈ 212 µM)	CC(C)[C@@H]1N[C@@H]2N(C1=O)c1ccccc1[C@]21C[C@@H]2C(=O)N[C@](C)(O1)c1nc3ccccc3c(=O)n12 [FUMIQUINAZOLINE L]	> 100	> 100
78.1	inactive	> 100	> 100	inactive	> 100	> 100	> 100	C[C@H]1C(=O)N2c3ccccc3[C@]3(O)C[C@@H](n4cnc5ccccc5c4=O)C(=O)N1[C@H]23	21.9	50.4
